From patent US11751586B2, “Compositions and methods for improving taste of non-nutritive sweeteners” (PEPSICO, INC., priority 2016, dated 2023)
“Also recorded” adds a separate entry of the source.

Experiments:
[1] = molecular target: T1, sweet taste receptors T1R2/T1R3 (Homo sapiens, UniProt Q7RTX0+Q8TE23); test: Taste receptor internalization assay (Ring Assay), sweet; format: cell-based; settings: for EC50 value, sweet receptor dose response: combined with the stevia blend 4, Example 15; for slope of the dose response curve: with the stevia 4 blend, individual compound vs the combination of compounds 1 and 10, FIGS. 51, 52, 55
T1 construct: receptor internalization assay (“Ring Assay”) on an H716 cell line; endogenous in cells; host or cells: H716 cell line
T1 sequence (Q8TE23 20-839): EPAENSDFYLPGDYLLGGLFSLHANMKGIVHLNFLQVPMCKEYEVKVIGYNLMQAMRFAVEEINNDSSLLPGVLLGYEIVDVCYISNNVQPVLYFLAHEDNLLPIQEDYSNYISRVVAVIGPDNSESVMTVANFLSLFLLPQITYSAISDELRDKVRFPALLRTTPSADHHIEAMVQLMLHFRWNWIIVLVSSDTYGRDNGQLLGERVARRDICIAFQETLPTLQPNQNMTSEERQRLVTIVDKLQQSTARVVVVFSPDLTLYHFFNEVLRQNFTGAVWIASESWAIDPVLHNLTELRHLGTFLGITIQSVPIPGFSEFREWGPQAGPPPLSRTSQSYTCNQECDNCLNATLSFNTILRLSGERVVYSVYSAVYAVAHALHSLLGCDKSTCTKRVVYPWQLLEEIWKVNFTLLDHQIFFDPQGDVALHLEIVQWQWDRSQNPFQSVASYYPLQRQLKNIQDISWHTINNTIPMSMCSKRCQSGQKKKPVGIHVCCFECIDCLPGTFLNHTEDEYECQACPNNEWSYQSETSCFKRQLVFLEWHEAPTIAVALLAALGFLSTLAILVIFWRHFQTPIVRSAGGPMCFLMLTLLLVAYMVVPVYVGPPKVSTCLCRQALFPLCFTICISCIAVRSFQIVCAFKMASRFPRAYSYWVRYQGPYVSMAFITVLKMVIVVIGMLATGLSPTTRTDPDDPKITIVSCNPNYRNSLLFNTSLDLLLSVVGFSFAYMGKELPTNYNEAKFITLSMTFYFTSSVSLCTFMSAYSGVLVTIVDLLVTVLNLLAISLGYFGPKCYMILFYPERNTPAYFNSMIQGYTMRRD
T1 sequence (Q7RTX0 21-852): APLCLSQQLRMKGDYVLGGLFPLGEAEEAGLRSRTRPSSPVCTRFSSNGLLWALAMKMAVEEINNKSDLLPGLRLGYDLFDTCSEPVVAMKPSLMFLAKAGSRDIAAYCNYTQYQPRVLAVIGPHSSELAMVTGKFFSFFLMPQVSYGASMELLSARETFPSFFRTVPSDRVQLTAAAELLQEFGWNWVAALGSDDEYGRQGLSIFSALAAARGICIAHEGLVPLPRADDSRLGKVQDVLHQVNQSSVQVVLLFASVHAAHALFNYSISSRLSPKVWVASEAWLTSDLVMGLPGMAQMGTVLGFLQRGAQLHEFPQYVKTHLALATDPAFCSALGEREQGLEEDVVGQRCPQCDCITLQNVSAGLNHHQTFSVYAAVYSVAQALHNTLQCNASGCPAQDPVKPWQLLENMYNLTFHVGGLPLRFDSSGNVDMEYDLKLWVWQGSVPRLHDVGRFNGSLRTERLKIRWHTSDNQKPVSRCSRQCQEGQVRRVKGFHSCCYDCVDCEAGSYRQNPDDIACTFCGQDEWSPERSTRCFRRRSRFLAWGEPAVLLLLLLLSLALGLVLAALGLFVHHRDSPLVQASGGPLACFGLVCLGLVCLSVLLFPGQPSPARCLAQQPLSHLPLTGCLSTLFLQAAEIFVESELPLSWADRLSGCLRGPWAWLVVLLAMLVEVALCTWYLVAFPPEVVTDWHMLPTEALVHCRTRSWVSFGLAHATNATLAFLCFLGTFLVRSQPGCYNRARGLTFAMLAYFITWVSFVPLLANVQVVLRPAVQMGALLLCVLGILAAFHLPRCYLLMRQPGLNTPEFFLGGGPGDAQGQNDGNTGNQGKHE
Procedure: (§1) The control samples and samples I-X were tested for their ability to activate sweet taste receptors T1R2/T1R3, GLUT4, and Glucagon and bitter taste receptors T2R using a taste receptor internalization assay. Receptor activation and internalization was measured using images acquired by an IMAGEXPRESS Micro automated epifluorescence microscope (Molecular Devices Corporation). The images were analyzed with METAXPRESS 5.1 Workstation software, utilizing the Multiwaves Translocation Scoring analysis algorithm for nuclear and cytoplasmic segmentation. Curve fitting and parameter estimation were then analyzed with TIBCO SPOTFIRE.
(§2) Taste Receptor Internalization General Procedure:
The two control samples and Samples I-X were each serially diluted eight times at a ratio of […] in water (1 part sample to 2 parts water) and dose response was determined by conducting a receptor internalization assay (“Ring Assay”) on an H716 cell line with an HCI platform using the methods disclosed in PCT Patent Application Publication No. WO 2014/183041. Receptor internalization was measured at 5 and 15 minutes. EC50 values and Maximum-Minimum (“Max-Min”) values were calculated using SPOTFIRE software. Sweet, aftertaste, glucagon, and bitterness scoring were calculated using analysis of variance (ANOVA). A median value was then calculated by dividing the Max-Min value by the EC50 value for all time points. The median values, which represent receptor activity, were then plotted on radar graphs, as shown in FIGS. 9A-9B, 10A-10B, 11A-11B, 12A-12B, 13, 14A-14B, 15A-15B, 16A-16B, 17A-17B, 18A-18B, and 19.
Several sets of aqueous samples were prepared to study the dose response for the sweet taste receptors. One set of samples was prepared by adding the stevia blend 4 (1.3 wt % rebaudioside D and 6.7 wt % SG95) to water and adding 0.32 wt % potassium sorbate. Malic acid was added to the solution until the pH was 3.5. Eleven sets of aqueous samples were prepared by separately combining the same stevia 4 blend with either 2-methylbutanol or one of the compounds listed in Table 4. Another set of samples was prepared by adding sugar to water. Four additional sets of aqueous samples were prepared by separately combining each of the stevia blend 4, above, and sugar with either compounds 1 and 10 or compounds 2, 6, and 10 from Table 4. One final set of aqueous samples was prepared by combining the stevia blend 4, above, with compounds 1, 2, 3, and 10 from Table 4. Each set of samples were serially diluted and had concentrations ranging from about 0.001 nM to about 100 μM.
The aqueous samples were tested at varying concentrations for their ability to activate the sweet taste receptors in accordance with the procedures described in Example 8. Dose response curves were generated for the stevia 4 blend, sugar, and each compound-stevia 4 blend combination.

[2] = test system: bitter taste receptors T2R; test: Taste receptor internalization assay (Ring Assay), bitter; format: cell-based
Procedure: as §1, §2
(§3) The two control samples and Samples I-X were each serially diluted eight times at a ratio of 1:1 in water (1 part sample to 2 parts water) and dose response was determined by conducting a receptor internalization assay (“Ring Assay”) on an H716 cell line with an HCI platform using the methods disclosed in PCT Patent Application Publication No. WO 2014/183041. Receptor internalization was measured at 5 and 15 minutes. EC50 values and Maximum-Minimum (“Max-Min”) values were calculated using SPOTFIRE software. Sweet, aftertaste, glucagon, and bitterness scoring were calculated using analysis of variance (ANOVA). A median value was then calculated by dividing the Max-Min value by the EC50 value for all time points. […]

[3] = test system: Glucagon; test: Taste receptor internalization assay (Ring Assay), glucagon; format: cell-based; settings: added to 8% stevia blend 3 base solution; compared to the sample with compound 2
Procedure: as §1, §2, §3

[4] = test system: sweet taste receptors T1R2/T1R3, GLUT4, and Glucagon and bitter taste receptors T2R; test: Taste receptor internalization assay, overall receptor response profile; format: cell-based; settings: Sample X vs Sample IX; FIG. 10A
Procedure: as §1, §2, §3

[5] = compared with Rebaudioside A; cited from earlier work
[6] = compared with other steviol glycosides; cited from earlier work
[7] = added to 0.2% stevia blend 3 base solution, Example 11
[8] = added to 8 wt % stevia blend 3 base solution, Examples 10 and 11

## CCCC[C@@H]1OC(=O)C[C@H]1C (relative stereo) [Compound 10, Trans-4-Methyl-5-butyldihydro-2(3H)-furanone]
[1]
  EC50 value, sweet receptor dose response: smaller
  slope of the dose response curve: smaller

## CCC(C)CO (centres unmarked) [2-methylbutanol]
[2]; [7]
  bitterness receptor response: high sweet and bitterness
[2]; [8]
  bitterness receptor response: no bitterness
[1]; [7]
  sweet receptor response: high sweet
[1]; [8]
  sweetness (sweet receptor) response: low sweet; also recorded: significantly lower
[3]
  glucagon receptor response: significantly lower

## CCCCOC(C)=O [Compound 1, Butyl Acetate]
[1]
  EC50 value, sweet receptor dose response: smaller
  slope of the dose response curve: smaller

## CC(C)CCO [Compound 2, 3-Methylbutanol]
[4]
  effect on the taste profile of stevia: sweet/glucagon enhancer
[1]
  EC50 value, sweet receptor dose response: low
[1]; for the stevia 4 blend, FIG. 57
  taste modulator classification: sweet enhancer

## C=C1C[C@@]23CC[C@H]4[C@@](C)(CCC[C@@]4(C)C(=O)O[C@@H]4O[C@H](CO)[C@@H](O)[C@H](O)[C@H]4O[C@@H]4O[C@H](CO)[C@@H](O)[C@H](O)[C@H]4O)[C@@H]2CC[C@]1(O[C@@H]1O[C@H](CO)[C@@H](O)[C@H](O[C@@H]2O[C@H](CO)[C@@H](O)[C@H](O)[C@H]2O)[C@H]1O[C@@H]1O[C@H](CO)[C@@H](O)[C@H](O)[C@H]1O)C3 [Rebaudioside D]
[5]
  water solubility: less water soluble than Rebaudioside A
[6]
  taste profile: almost lacking the bitterness and lingering licorice aftertaste
